Measurements published in patent US8846675B2, “N-linked heterocyclic receptor agonists for the treatment of diabetes and metabolic disorders” (Cymabay Therapeutics, Inc., priority 2007, dated 2014).

The compounds below were run against T1, IC-GPCR2 (Homo sapiens, UniProt Q8TDV5) (assay: Stimulation of cAMP in CHO cell line stably expressing IC-GPCR2 (HTRF cAMP dynamic kit)). Details: 3 μM compound; relative to maximal activity of 5-Ethyl-2-{4-[4-(4-tetrazol-1-yl-phenoxymethyl)-thiazol-2-yl]-piperidin-1-yl}-pyrimidine (=100%); IC-GPCR2 stably expressing CHO cells, 30 minutes.
T1 construct: expressed in transfected cells
T1 sequence (Q8TDV5 1-335 S309L): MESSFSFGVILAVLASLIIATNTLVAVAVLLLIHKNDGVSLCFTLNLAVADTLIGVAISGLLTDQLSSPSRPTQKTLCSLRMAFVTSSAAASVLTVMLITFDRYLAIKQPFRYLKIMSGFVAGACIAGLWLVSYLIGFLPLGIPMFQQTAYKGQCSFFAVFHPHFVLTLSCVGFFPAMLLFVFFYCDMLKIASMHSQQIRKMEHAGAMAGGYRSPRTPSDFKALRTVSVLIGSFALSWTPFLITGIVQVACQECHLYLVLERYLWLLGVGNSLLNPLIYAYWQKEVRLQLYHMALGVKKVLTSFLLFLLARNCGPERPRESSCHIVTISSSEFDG
Format: cell-based
Method: This assay was developed using a stable cell line expressing IC-GPCR-2, generated as follows. IC-GPCR2 (Seq. ID No. 1) was cloned into Gateway pDEST 40vector (Invitrogen), using the Gateway cloning system (invitrogen) according to the manufacturers instructions. A stable cell line was generated by transfecting a 10 cm plate of CHO cells (source) with 8 ug of this construct using Transit-CHO transfection kit (Mirus). CHO cells were plated the day prior to transfection at a density of 3,000,000 cells/plate. Clones were selected using the antibiotic G418 at 500 ug/ml. 23 clones were picked and assayed for the expression of the receptor by measuring changes in intracellular cAMP levels in response to an IC-GPCR2 agonist (Arena 51).
To measure cAMP activity in response to IC-GPCR2 agonist, the clones were plated in 96 well plates at 17500 cells per well. On the day after plating, cells were incubated with the IC-CPCR2 agonist at […] for 30 minutes in Ham's F12 Media (Gibco) with 0.04% DMSO. cAMP was measured using the cAMP dynamic kit from C is Bio (Bedford, Mass.) according to the manufacturers instructions. Briefly, cells were lysed, and cAMP levels determined by competitive immunoassay using D2 labeled cAMP, and europium cryptate tagged anti cAMP antibody. When in close proximity, the D2 and europium cryptate undergo fluorescence resonance energy transfer (FRET), which is measured as a fluorescence ratio (665 nm/620 nm). Unlabelled cAMP in the cell lysatc competed with the D2 labeled cAMP for the europium crypate labeled antibody. The resulting decrease in FRET signal corresponded to intracellular cAMP levels. Fluorescence was read on a BMG Labtech PHERAstar, software version 1.50.
The clone with the greatest response to IC-GPCR2 agonist was selected for the screening assay.
Compounds were dissolved in 100% DMSO to a concentration of […] to provide stock solutions. To determine activity against IC-GPCR2, compounds were incubated with IC-GPCR2 stably expressing cells (described above), at 6-8 concentrations ranging from 0.00003 to 10 micromolar, in 96 well plates, in 50 ul of Hams F12 media for 30 minutes. Cells were plated at 17500 cells per well 1 day before running the assay. All compounds were also screened against the parental CHO cells. cAMP was measured using the cAMP dynamic kit from Cis Bio (Bedford, Mass.), according to the manufacturer's instructions. Briefly, cells were lysed and cAMP levels determined by competitive immunoassay using D2 labeled cAMP, and europium cryptate tagged anti cAMP antibody. When in close proximity, the D2 and europium cryptate undergo fluorescence resonance energy transfer (FRET), which is measured as a fluorescence ratio (665 nm/620 nm). Unlabelled cAMP in the cell lysate competed with the D2 labeled cAMP for the europium crypate labeled antibody. The resulting decrease in FRET signal corresponded to intracellular cAMP levels
To determine percent activity for a tested compound, the FRET signal value obtained at a particular concentration are compared to the Maximal FRET signal value obtained for 5-Ethyl-2-{4-[4-(4-tetrazol-1-yl-phenoxymethyl)-thiazol-2-yl]-piperidin-1-yl}-pyrimidine. The maximal activity of 5-Ethyl-2-{4-[4-(4-tetrazol-1-yl-phenoxymethyl)-thiazol-2-yl]-piperidin-1-yl}-pyrimidine is designated as 100% activity. Typically, the concentration of 5-Ethyl-2-{4-[4-(4-tetrazol-1-yl-phenoxymethyl)-thiazol-2-yl]-piperidin-1-yl}-pyrimidine in the assay was approximately 0.1 μM. The synthesis of 5-Ethyl-2-{4-[4-(4-tetrazol-1-yl-phenoxymethyl)-thiazol-2-yl]-piperidin-1-yl}-pyrimidine is disclosed in co-owned pending U.S. patent application Ser. No. 11/964,461, herein incorporated by reference. Activities of compounds that were tested are shown in Table 1 below and are expressed as % activity at 3 μM compound compared to the maximal activity of 5-Ethyl-2-{4-[4-(4-tetrazol-1-yl-phenoxymethyl)-thiazol-2-yl]-piperidin-1-yl}-pyrimidine at 3 μM.

Compound | % activity at 3 μM [%]
COC(=O)[C@H]1C[C@H](n2ncc(COc3ccc(-n4cnnn4)nc3)n2)CCN1C(=O)OC(C)(C)C (relative stereo) [Example 59] | 33.25
CC(C)(C)OC(=O)N1CCC(n2cnc(COc3ccc(S(C)(=O)=O)cc3F)n2)CC1 [Example 1, 4-[3-(2-Fluoro-4-methanesulfonyl-phenoxymethyl)-[1,2,4]triazol-1-yl]-piperidine-1-carboxylic acid tert-butyl ester] | 64.46
CC(C)(C)OC(=O)N1CCC(n2ncc(COc3ccc(-n4cnnn4)cc3)n2)CC1 [Example 3, 4-[4-(4-Tetrazol-1-yl-phenoxymethyl)-[1,2,3]triazol-2-yl]-piperidine-1-carboxylic acid tert-butyl ester] | 79.02
CC(C)(C)OC(=O)N1CCC(n2ncc(COc3ccc(S(C)(=O)=O)cc3F)n2)CC1 [Example 4, 4-[4-(2-Fluoro-4-methanesulfonyl-phenoxymethyl)-[1,2,3]triazol-2-yl]-piperidine-1-carboxylic acid tert-butyl ester] | 79.18
CC(C)(C)OC(=O)N1CCC(n2nnc(COc3ccc(S(C)(=O)=O)cc3F)n2)CC1 [Example 5, 4-[5-(2-Fluoro-4-methanesulfonyl-phenoxymethyl)-tetrazol-2-yl]-piperidine-1-carboxylic acid tert-butyl ester] | 75.78
CC(C)(C)OC(=O)N1CCC(n2ccc(COc3ccc(-n4cnnn4)cc3F)n2)CC1 [Example 6, 4-[3-(2-Fluoro-4-tetrazol-1-yl-phenoxymethyl)-pyrazol-1-yl]-piperidine-1-carboxylic acid tert-butyl ester] | 79.51
CC(C)(C)OC(=O)N1CCC(n2cc(COc3ccc(-n4cnnn4)cc3F)cn2)CC1 [Example 7, 4-[4-(2-Fluoro-4-tetrazol-1-yl-phenoxymethyl)-pyrazol-1-yl]-piperidine-1-carboxylic acid tert-butyl ester] | 78.16
CC(C)(C)OC(=O)N1CCC(n2cc(COc3ccc(-n4cnnn4)cc3)cn2)CC1 [Example 8, 4-[4-(4-Tetrazol-1-yl-phenoxymethyl)-pyrazol-1-yl]-piperidine-1-carboxylic acid tert-butyl ester] | 77.16
CCc1cnc(N2CCC(n3cnc(COc4ccc(S(C)(=O)=O)cc4F)n3)CC2)nc1 [Example 9, 5-Ethyl-2-{4-[3-(2-fluoro-4-methanesulfonyl-phenoxymethyl)-[1,2,4]triazol-1-yl]-piperidin-1-yl}-pyrimidine] | 65.75
CCc1cnc(N2CCC(n3ncc(COc4ccc(S(C)(=O)=O)cc4F)n3)CC2)nc1 [Example 10, 5-Ethyl-2-{4-[4-(2-fluoro-4-methanesulfonyl-phenoxymethyl)-[1,2,3]triazol-2-yl]-piperidin-1-yl}-pyrimidine] | 71.04
CS(=O)(=O)c1ccc(OCc2cnn(C3CCN(c4ncc(Cl)cn4)CC3)n2)c(F)c1 [Example 13, 5-Chloro-2-{4-[4-(2-fluoro-4-methanesulfonyl-phenoxymethyl)-[1,2,3]triazol-2-yl]-piperidin-1-yl}-pyrimidine] | 61.30
CS(=O)(=O)c1ccc(OCc2cnn(C3CCN(c4ncc(C(F)(F)F)cn4)CC3)n2)c(F)c1 [Example 14, 2-{4-[4-(2-Fluoro-4-methanesulfonyl-phenoxymethyl)-[1,2,3]triazol-2-yl]-piperidin-1-yl}-5-trifluoromethyl-pyrimidine] | 74.80
Fc1cc(-n2cnnn2)ccc1OCc1cnn(C2CCN(c3ncc(C(F)(F)F)cn3)CC2)n1 [Example 15, 2-{4-[4-(2-Fluoro-4-tetrazol-1-yl-phenoxymethyl)-[1,2,3]triazol-2-yl]-piperidin-1-yl}-5-trifluoromethyl-pyrimidine] | 75.63
Fc1cc(-n2cnnn2)ccc1OCc1cnn(C2CCN(c3ncc(Cl)cn3)CC2)n1 [Example 16, 5-Chloro-2-{4-[4-(2-fluoro-4-tetrazol-1-yl-phenoxymethyl)-[1,2,3]triazol-2-yl]-piperidin-1-yl}-pyrimidine] | 70.31

Other lines, results leading:

% activity at 3 μM [%] | Compound
88.32 | Fc1cc(-n2cnnn2)ccc1OCc1cnn([C@H]2CCN(c3ncc(Cl)cn3)C[C@@H]2F)n1 (racemic) [Example 33, 5-Chloro-2-((trans)-3-fluoro-4-(4-((2-fluoro-4-(1H-tetrazol-1-yl)phenoxy)methyl)-2H-1,2,3-triazol-2-yl)piperidin-1-yl)pyrimidine]
87.61 | Fc1cc(-n2cnnn2)ccc1OCc1cnn([C@H]2CCN(c3ncc(C(F)(F)F)cn3)C[C@@H]2F)n1 (racemic) [Example 34, 2-((trans)-3-Fluoro-4-(4-((2-fluoro-4-(1H-tetrazol-1-yl)phenoxy)methyl)-2H-1,2,3-triazol-2-yl)piperidin-1-yl)-5-(trifluoromethyl)pyrimidine]
85.32 | CCc1cnc(N2CC[C@H](n3ncc(COc4ccc(-n5cnnn5)cc4F)n3)[C@@H](F)C2)nc1 (racemic) [Example 38, 5-Ethyl-2-((trans)-3-fluoro-4-(4-((2-fluoro-4-(1H-tetrazol-1-yl)phenoxy)methyl)-2H-1,2,3-triazol-2-yl)piperidin-1-yl)pyrimidine]
78.48 | CC(C)(C)OC(=O)N1CC[C@@H](n2ncc(COc3ccc(-n4cnnn4)cc3F)n2)[C@H](F)C1 (relative stereo) [Example 49, (trans)-tert-Butyl 3-fluoro-4-(4-((2-fluoro-4-(1H-tetrazol-1-yl)phenoxy)methyl)-2H-1,2,3-triazol-2-yl)piperidine-1-carboxylate]
68.23 | CS(=O)(=O)c1ccc(OCc2nnn(C3CCN(c4ncc(Cl)cn4)CC3)n2)c(F)c1 [Example 17, 5-Chloro-2-{4-[5-(2-fluoro-4-methanesulfonyl-phenoxymethyl)-tetrazol-2-yl]-piperidin-1-yl}-pyrimidine]
77.67 | CCc1cnc(N2CCC(n3cc(COc4ccc(-n5cnnn5)cc4)cn3)CC2)nc1 [Example 18, 2-(4-(4-((4-(1H-tetrazol-1-yl)phenoxy)methyl)-1H-pyrazol-1-yl)piperidin-1-yl)-5-ethylpyrimidine]
80.10 | CCc1cnc(N2CCC(n3cc(COc4ccc(-n5cnnn5)cc4F)cn3)CC2)nc1 [Example 19, 5-Ethyl-2-(4-(4-((2-fluoro-4-(1H-tetrazol-1-yl)phenoxy)methyl)-1H-pyrazol-1-yl)piperidin-1-yl)pyrimidine]
63.66 | CC(C)(C)OC(=O)N1CCC(n2cc(COc3ccc(S(C)(=O)=O)cc3)nn2)CC1 [Example 21, 4-[4-(4-Methanesulfonyl-phenoxymethyl)[1,2,3]triazol-1-yl]-piperidine-1-carboxylic acid tert-butyl ester]
